The values below come from paper PMC6930555, “Design, Synthesis, and Structural Characterization of Novel Diazaphenothiazines with 1,2,3-Triazole Substituents as Promising Antiproliferative Agents” (Molecules, 2019).

For one experiment, the system named is glioblastoma SNB-19. Put plainly: WST-1 cell proliferation assay, SNB-19. It is filed as cell-based, human. The note with it: SNB-19, WST-1, 72 h, read-out: Anticancer Activity IC50 SNB-19. The procedure:
(§1) Encouraged by our previous promising results in the field of antiproliferative activity of dipyridothiazines as well as by the good anticancer activity of the 1,2,3-triazoles, we decided to combine the biological potentials of dipyridothiazines and triazole moieties, hoping to obtain compounds with better activity. The antiproliferative activity of all 20 new 10-substituted 1,2,3-triazole derivatives of dipyridothiazines was tested in vitro against cancer cell lines: glioblastoma SNB-19, colorectal carcinoma Caco-2, lung cancer A549, and breast cancer MDA-MB231 using the WST-1 assay. Normal human fibroblasts NHDF were used as a control.
(§2) All dipyridothiazines with 1,2,3-triazole substituents (1–4)b–f were evaluated for their anticancer activity using four cultured cell lines: SNB-19 (human glioblastoma, DSMZ—German Collection of Microorganisms and Cell Cultures, Braunschweig, Germany), Caco-2 (human colon adenocarcinoma, DSMZ—German Collection of Microorganisms and Cell Cultures, Braunschweig, Germany), A549 (human lung carcinoma, ATCC, Manassas, VA, USA) and MDA-MB231 (human breast adenocarcinoma, ATCC, Manassas, VA, USA), and NHDF (human dermal fibroblast cell line, ATCC, Manassas, VA, USA. The cultured cells were kept at 37 °C and 5% CO2. The cells were seeded (1 × 10^4 cells/well/100 µL DMEM supplemented with 10% FCS and streptomycin and penicillin) using 96-well plates (Corning). The cells were counted in a hemocytometer (Burker’s chamber) using a phase contrast Olympus IX50 microscope equipped with Sony SSC-DC58 AP camera and Olympus DP10 digital camera.
(§3) Antiproliferative effect of the obtained compounds on the cancer cells was determined using the cell proliferation reagent WST-1 assay (Roche Diagnostics, Mannheim, Germany). This assay is based on the viable cell’s ability to cleave the bright red-colored tetrazolium salt (2-(4-iodophenyl)-3-(4-nitrophenyl)-5-(2,4-disulfophenyl)-2H-tetrazolium, monosodium salt) to dark red soluble formazan by cellular enzymes. An increase in the amount of formazan dye formed correlates to the number of metabolically active cells in the culture. The formazan dye produced by metabolically active cells is quantified by a scanning ELISA reader by measuring the absorbance of the dye solution at appropriate wavelengths. The examined cells were exposed to the tested compounds for 72 h at various concentrations between 0.1 μg/mL and 100 μg/mL (prepared initially at concentration of 1 mg/mL in DMSO). The cells were incubated with WST-1 (10 μL) for 1 h and the absorbance of the samples against a background control was measured at 450 nm using a microplate reader with a reference wavelength at 600 nm. The results are expressed as means of at least two independent experiments performed in triplicate.
On the technique in general: Tetrazolium assays rely on reduction of a dye to a coloured formazan, in cell work by metabolically active cells.

For a further experiment, the system named is lung cancer A549. Description: WST-1 cell proliferation assay, A549. In kind it is cell-based, human. The note with it: A549, WST-1, 72 h, read-out: Anticancer Activity IC50 A549. The procedure: as §1, §2, §3
Experiment [1] has as its system normal human fibroblasts NHDF. Put plainly: WST-1 cytotoxicity assay, normal fibroblasts NHDF. The note with it: normal human fibroblasts NHDF, WST-1, 72 h. In kind it is cell-based. The protocol: as §1, §2, §3
For experiment [2], the system named is colorectal carcinoma Caco-2. Put plainly: WST-1 cell proliferation assay, Caco-2. In kind it is cell-based. The note with it: Homo sapiens; Caco-2, WST-1, 72 h; read-out: Anticancer Activity IC50 Caco-2. The protocol:
(§4) The antiproliferative activity of all 20 new 10-substituted 1,2,3-triazole derivatives of dipyridothiazines was tested in vitro against cancer cell lines: glioblastoma SNB-19, colorectal carcinoma Caco-2, lung cancer A549, and breast cancer MDA-MB231 using the WST-1 assay. Normal human fibroblasts NHDF were used as a control.
as §2, §3

Another experiment relates to breast cancer MDA-MB231. Put plainly: WST-1 cell proliferation assay, MDA-MB231. The note with it: MDA-MB231, WST-1, 72 h, read-out: Anticancer Activity IC50 MDA-MB231. In kind it is cell-based, human. The procedure:
as §1, §2, §3

Experiment [3] deals with SNB-19, Caco-2, A549 and MDA-MB231 cancer cell lines. Put plainly: WST-1 assay, summary over the cancer cell line panel. In kind it is cell-based, human. The note with it: for IC50: Homo sapiens. The procedure:
as §4, §2, §3

Read-outs that look alike come from different tables or passages of the source.

For orientation: IC50 means the concentration that gives 50% inhibition. Turning to `c1ccc(SCn2cc(CN3c4ccncc4Sc4ncccc43)nn2)cc1` [4f, 10-[(1-Phenylthiomethyl-1H-1,2,3-triazolo-4-ylo)methyl]-3,6-diazaphenothiazine], the IC50 was 44.8 µM in the experiment with glioblastoma SNB-19 (Homo sapiens); over 100 µM in the experiment with lung cancer A549 (Homo sapiens); over 100 µM in experiment [1]; 67.5 µM in experiment [2]; 44.3 µM in the experiment with breast cancer MDA-MB231 (Homo sapiens, MDA-MB-231).
As to `c1ccc(Cn2cc(CN3c4cnccc4Sc4cccnc43)nn2)cc1` [2b, 10-[(1-Benzyl-1H-1,2,3-triazol-4-yl)-methyl]-1,8-diazaphenothiazine], the IC50 in the experiment on glioblastoma SNB-19 (Homo sapiens) is 41.9 µM; with lung cancer A549 (Homo sapiens), 77.4 µM; in experiment [1], over 100 µM; in experiment [2] it was over 100 µM; with breast cancer MDA-MB231 (Homo sapiens, MDA-MB-231) it was 56.3 µM.
`c1ccc(Cn2cc(CN3c4ccncc4Sc4ccncc43)nn2)cc1` [3b, 10-[(1-Benzyl-1H-1,2,3-triazol-4-yl)-methyl]-2,7-diazaphenothiazine]: the IC50 in experiment [3] (span over SNB-19, Caco-2, A549, MDA-MB231, read-out: IC50 across all investigated cancer cell lines) is 0.26 to 2.07 µM; with glioblastoma SNB-19 (Homo sapiens), 2.04 µM; with lung cancer A549 (Homo sapiens) it was 0.26 µM; in experiment [1] it was 22.7 µM; in experiment [2], 0.26 µM; with breast cancer MDA-MB231 (Homo sapiens, MDA-MB-231), 0.77 µM.
As for `c1ccc(SCn2cc(CN3c4ccncc4Sc4ccncc43)nn2)cc1` [3f, 10-[(1-Phenylthiomethyl-1H-1,2,3-triazolo-4-ylo)methyl]-2,7-diazaphenothiazine], in experiment [3] (four cancer cell lines), the “selectivity among cancer cell lines (in words)” value was “acted selectively towards A549 and MDA-MB231 cell lines”. For the same compound, the IC50 in the experiment with glioblastoma SNB-19 (Homo sapiens) was found to be 32.6 µM; in the experiment with lung cancer A549 (Homo sapiens) it was 0.65 µM; in experiment [1], 52.9 µM; in experiment [2] it was 14.5 µM; in the experiment on breast cancer MDA-MB231 (Homo sapiens, MDA-MB-231) it was 0.64 µM.
In the case of `Clc1ccc(Cn2cc(CN3c4ccncc4Sc4ccncc43)nn2)cc1` [3d, 10-[(1-(4-Chlorobenzyl)-1H-1,2,3-triazol-4-yl)methyl]-2,7-diazaphenothiazine], the IC50 in the experiment with glioblastoma SNB-19 (Homo sapiens) was 31.3 µM; in the experiment on lung cancer A549 (Homo sapiens) it was 17.9 µM; in experiment [1], over 100 µM; in experiment [2], 33.1 µM; in the experiment with breast cancer MDA-MB231 (Homo sapiens, MDA-MB-231) it was 4.26 µM.
The matching figures for `c1ccc(Cn2cc(CN3c4cccnc4Sc4cccnc43)nn2)cc1` [1b, 10-[(1-Benzyl-1H-1,2,3-triazol-4-yl)-methyl]-1,6-diazaphenothiazine]: 69.2 µM, over 100 µM, over 100 µM, 19.9 ± 2.71 µM and 13.7 µM.
On to `Clc1ccc(Cn2cc(CN3c4cnccc4Sc4cccnc43)nn2)cc1` [2d, 10-[(1-(4-Chlorobenzyl)-1H-1,2,3-triazol-4-yl)methyl]-1,8-diazaphenothiazine], for which the IC50 in the experiment with glioblastoma SNB-19 (Homo sapiens) is 59.9 µM; with lung cancer A549 (Homo sapiens) it was 1.82 µM; in experiment [1], 43 µM; in experiment [2], 11.4 µM; with breast cancer MDA-MB231 (Homo sapiens, MDA-MB-231) it was 4.71 µM.
With `Fc1ccc(Cn2cc(CN3c4ccncc4Sc4ccncc43)nn2)cc1` [3c, 10-[(1-(4-Fluorobenzyl)-1H-1,2,3-triazol-4-yl)methyl]-2,7-diazaphenothiazine], the IC50 in the experiment with glioblastoma SNB-19 (Homo sapiens) is 57.9 µM; with lung cancer A549 (Homo sapiens) it was 27.2 µM; in experiment [1], 70.6 µM; in experiment [2], 29.9 µM; in the experiment with breast cancer MDA-MB231 (Homo sapiens, MDA-MB-231), 25.7 µM.
In the case of `N.N.[Cl][Pt][Cl]` [Cisplatin, reference compound], the IC50 was found to be 3.73 µM with glioblastoma SNB-19, 0.6 µM with lung cancer A549, 63.9 µM in experiment [1] and 3.13 µM in the experiment with breast cancer MDA-MB231.
`N#Cc1ccc(Cn2cc(CN3c4cccnc4Sc4cccnc43)nn2)cc1` [1e, 10-[(1-(4-Cyanobenzyl)-1H-1,2,3-triazol-4-yl)methyl]-1,6-diazaphenothiazine]: the IC50 with glioblastoma SNB-19 (Homo sapiens) was 9.65 µM; with lung cancer A549 (Homo sapiens), 1.79 µM; in experiment [1], over 100 µM; in experiment [2], 79.7 µM; in the experiment on breast cancer MDA-MB231 (Homo sapiens, MDA-MB-231) it was 25.8 µM.
In the case of `N#Cc1ccc(Cn2cc(CN3c4ccncc4Sc4ncccc43)nn2)cc1` [4e, 10-[(1-(4-Cyanobenzyl)-1H-1,2,3-triazol-4-yl)methyl]-3,6-diazaphenothiazine], the IC50 in the experiment on glioblastoma SNB-19 (Homo sapiens) is 53.6 µM; in the experiment with lung cancer A549 (Homo sapiens) it was 42.7 µM; in experiment [1], over 100 µM; in experiment [2], 74.3 µM; with breast cancer MDA-MB231 (Homo sapiens, MDA-MB-231) it was 38.8 µM.
As to `Fc1ccc(Cn2cc(CN3c4cccnc4Sc4cccnc43)nn2)cc1` [1c, 10-[(1-(4-Fluorobenzyl)-1H-1,2,3-triazol-4-yl)methyl]-1,6-diazaphenothiazine], the IC50 was 5.72 to 7.82 µM in experiment [3] (span over SNB-19 and MDA-MB231, read-out: IC50 in relation to SNB-19 and MDA-MB231 cell lines); 5.72 µM with glioblastoma SNB-19 (Homo sapiens); 29.1 µM in the experiment with lung cancer A549 (Homo sapiens); over 100 µM in experiment [1]; 8.1 µM in experiment [2]; 7.82 µM in the experiment with breast cancer MDA-MB231 (Homo sapiens, MDA-MB-231).
As to `c1ccc(SCn2cc(CN3c4cnccc4Sc4cccnc43)nn2)cc1` [2f, 10-[(1-Phenylthiomethyl-1H-1,2,3-triazolo-4-ylo)methyl]-1,8-diazaphenothiazine], the IC50 with glioblastoma SNB-19 (Homo sapiens) was 56.3 µM; with lung cancer A549 (Homo sapiens) it was 46.8 µM; in experiment [1], over 100 µM; in experiment [2] it was 32.5 µM; in the experiment with breast cancer MDA-MB231 (Homo sapiens, MDA-MB-231), 12 µM.
The matching figures for `c1ccc(Cn2cc(CN3c4ccncc4Sc4ncccc43)nn2)cc1` [4b, 10-[(1-Benzyl-1H-1,2,3-triazol-4-yl)-methyl]-3,6-diazaphenothiazine]: 20.8 µM, 60.6 µM, over 100 µM, 57.9 µM and 7.87 µM.
Consider `Clc1ccc(Cn2cc(CN3c4ccncc4Sc4ncccc43)nn2)cc1` [4d, 10-[(1-(4-Chlorobenzyl)-1H-1,2,3-triazol-4-yl)methyl]-3,6-diazaphenothiazine], for which the IC50 in the experiment with glioblastoma SNB-19 (Homo sapiens) is 14.9 µM; with lung cancer A549 (Homo sapiens), 54 µM; in experiment [1], over 100 µM; in experiment [2], 42.1 µM; in the experiment on breast cancer MDA-MB231 (Homo sapiens, MDA-MB-231) it was 13.4 µM.
For `c1ccc(SCn2cc(CN3c4cccnc4Sc4cccnc43)nn2)cc1` [1f, 10-[(1-Phenylthiomethyl-1H-1,2,3-triazolo-4-ylo)methyl]-1,6-diazaphenothiazine], the IC50 in the experiment with glioblastoma SNB-19 (Homo sapiens) is over 100 µM; with lung cancer A549 (Homo sapiens), over 100 µM; in experiment [1], over 100 µM; in experiment [2], over 100 µM; in the experiment on breast cancer MDA-MB231 (Homo sapiens, MDA-MB-231), 68.7 µM.
With `N#Cc1ccc(Cn2cc(CN3c4ccncc4Sc4ccncc43)nn2)cc1` [3e, 10-[(1-(4-Cyanobenzyl)-1H-1,2,3-triazol-4-yl)methyl]-2,7-diazaphenothiazine], the IC50 in the experiment with glioblastoma SNB-19 (Homo sapiens) turned out to be 26.8 µM; in the experiment with lung cancer A549 (Homo sapiens), 30.1 µM; in experiment [1], 49.5 µM; in experiment [2] it was 10 µM; with breast cancer MDA-MB231 (Homo sapiens, MDA-MB-231) it was 3.5 µM.
The matching figures for `N#Cc1ccc(Cn2cc(CN3c4cnccc4Sc4cccnc43)nn2)cc1` [2e, 10-[(1-(4-Cyanobenzyl)-1H-1,2,3-triazol-4-yl)methyl]-1,8-diazaphenothiazine]: 10.6 µM, 63.8 µM, over 100 µM, 34.4 µM and 12 µM.
Taken in the same sequence, the figures for `Fc1ccc(Cn2cc(CN3c4cnccc4Sc4cccnc43)nn2)cc1` [2c, 10-[(1-(4-Fluorobenzyl)-1H-1,2,3-triazol-4-yl)methyl]-1,8-diazaphenothiazine] were 55.2 µM, 60.2 µM, over 100 µM, 43.6 µM and 9.21 µM.
